Numbered stars: 1 amine (or outer) side, 2 acyl side, 3 side chain; on linkers, the order of the positions; unused ones are H or OH. Bridge positions count the residues as written; N and C are the ends. Square brackets hold non-standard residues; d marks the D form. Peptide text beside a SMILES is read from it. * marks the point of attachment. ξ: configuration not given here. X18 = O=C(O)COCCc1ccc(-c2ccc(C[C@H](N[*:1])C(=O)[*:2])cc2)cc1; Phe(4-COOH) = N[C@@H](Cc1ccc(C(=O)O)cc1)C(=O)O; Bip = N[C@@H](Cc1ccc(-c2ccccc2)cc1)C(=O)O; Phe(3-Me) = Cc1cccc(C[C@H](N)C(=O)O)c1; Bta = N[C@@H](Cc1csc2ccccc12)C(=O)O; aIle = CC[C@@H](C)[C@H](N)C(=O)O; 4Pal = N[C@@H](Cc1ccncc1)C(=O)O; 2Thi = N[C@@H](Cc1cccs1)C(=O)O; Cha = N[C@@H](CC1CCCCC1)C(=O)O; Cit = NC(=O)NCCC[C@H](N)C(=O)O; Ile(3ξ) = CCC(C)[C@H](N)C(=O)O; Thr(3ξ) = CC(O)[C@H](N)C(=O)O; hSer = N[C@@H](CCO)C(=O)O; Carboxymethyl = O=C(O)C*; NMeA = CN[C@@H](C)C(=O)O; Orn = NCCC[C@H](N)C(=O)O; Dab = NCC[C@H](N)C(=O)O; Dap = NC[C@H](N)C(=O)O; Piv = CC(C)(C)C(=O)*; ξV = CC(C)C(N)C(=O)O
Molecular target: T1, PE-labeled human PD-L1-Ig binding to Jurkat cell line over-expressing human PD-1 (Jurkat-PD-1) (Homo sapiens, UniProt Q15116)
T1 construct: expressed in transfected cells; host or cells: Jurkat
T1 sequence (Q15116 25-288): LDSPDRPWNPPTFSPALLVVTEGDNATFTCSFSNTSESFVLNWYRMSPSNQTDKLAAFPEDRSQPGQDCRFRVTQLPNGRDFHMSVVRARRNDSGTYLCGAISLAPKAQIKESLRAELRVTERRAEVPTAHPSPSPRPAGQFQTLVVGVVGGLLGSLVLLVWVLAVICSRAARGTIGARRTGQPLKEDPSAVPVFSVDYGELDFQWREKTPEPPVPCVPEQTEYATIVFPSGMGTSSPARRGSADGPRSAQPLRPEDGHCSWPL
Assay: Jurkat-PD-1 Cell Binding High-Content Screening Assay (CBA): Method 1
Settings: Jurkat-hPD-1 cells, PE-labeled PD-L1-Ig 20 nM final; read-out: Jurkat HPDL1 PD1 IC50 (uM) (Method 1)

Row | SMILES | IC50
1 | CC(C)C[C@@H]1NC(=O)[C@H](CCN)NC(=O)[C@@H](CC(C)C)NC(=O)[C@H](C)N(C)C(=O)[C@H](CCCNC(N)=O)NC(=O)[C@H](Cc2ccc(-c3ccccc3)cc2)NC(=O)[C@H](C(C)C)NC(=O)[C@H](Cc2c[nH]c3ccccc23)NC(=O)[C@H](CC(=O)O)NC(=O)[C@H](Cc2ccc(OCC(=O)O)cc2)NC(=O)[C@H](CC(N)=O)NC(=O)CSC[C@@H](C(=O)N[C@@H](C)C(N)=O)NC(=O)[C@H]([C@@H](C)O)NC(=O)[C@H](C(C)C)NC1=O [Compound 1321] ({CH2CO}-NY(Carboxymethyl)DWV[Bip][Cit][NMeA][dL][Dab]LVTCA-NH2; thioether N-14) | 0.08 µM
2 | CC(C)C[C@@H]1NC(=O)[C@H](CCCN)NC(=O)[C@@H](CC(C)C)NC(=O)[C@H](C)N(C)C(=O)[C@H](CCCNC(=N)N)NC(=O)[C@H](Cc2ccc(-c3ccccc3)cc2)NC(=O)[C@H](C(C)C)NC(=O)[C@H](Cc2c[nH]c3ccccc23)NC(=O)[C@H](CC(=O)O)NC(=O)[C@H](Cc2ccc(C(=O)O)cc2)NC(=O)[C@H](CC(N)=O)NC(=O)CSC[C@@H](C(=O)N[C@@H](C)C(N)=O)NC(=O)[C@H]([C@@H](C)O)NC(=O)[C@H](C(C)C)NC1=O [Compound 1139] ({CH2CO}-N[Phe(4-COOH)]DWV[Bip]R[NMeA][dL][Orn]LVTCA-NH2; thioether N-14) | 0.06 µM
3 | Cc1cccc(C[C@@H]2NC(=O)[C@H](CC(=O)O)NC(=O)[C@H](Cc3ccncc3)NC(=O)[C@H](CN)NC(=O)CSC[C@@H](C(=O)N[C@@H](C)C(N)=O)NC(=O)[C@H]([C@@H](C)O)NC(=O)[C@H](C(C)C)NC(=O)[C@H](CC(C)C)NC(=O)[C@H](CCN)NC(=O)[C@@H](CC(C)C)NC(=O)[C@H](C)N(C)C(=O)[C@H](C(C)C)NC(=O)[C@H](Cc3ccc(-c4ccccc4)cc3)NC(=O)[C@H](C(C)C)NC2=O)c1 [Compound 1543] ({CH2CO}-[Dap][4Pal]D[Phe(3-Me)]V[Bip]V[NMeA][dL][Dab]LVTCA-NH2; thioether N-14) | 0.01 µM
4 | CC(C)C[C@@H]1NC(=O)[C@H](CCCNC(=N)N)NC(=O)[C@H](Cc2csc3ccccc23)NC(=O)[C@H](C)N(C)C(=O)[C@H](CCC(=O)O)NC(=O)[C@H](Cc2ccc(-c3ccccc3)cc2)NC(=O)[C@H](C(C)C)NC(=O)[C@H](Cc2c[nH]c3ccccc23)NC(=O)[C@H](CC(=O)O)NC(=O)[C@H](Cc2ccc(O)cc2)NC(=O)[C@H](Cc2ccccc2)NC(=O)CSC[C@@H](C(=O)N[C@@H](C)C(N)=O)NC(=O)[C@H]([C@@H](C)O)NC(=O)[C@H](C(C)C)NC1=O [Compound 1133] ({CH2CO}-FYDWV[Bip]E[NMeA][Bta]RLVTCA-NH2; thioether N-14) | 0.35 µM
5 | CC(C)C[C@@H]1NC(=O)[C@H](Cc2c[nH]c3ccccc23)NC(=O)[C@H](CC(=O)O)NC(=O)[C@H](Cc2ccc(O)cc2)NC(=O)[C@H](Cc2cnc[nH]2)NC(=O)CSC[C@@H](C(=O)N[C@@H](C)C(N)=O)NC(=O)[C@H](CO)NC(=O)[C@H](C(C)C)NC(=O)[C@H](CC(C)C)NC(=O)[C@H](CC(N)=O)NC(=O)[C@@H](C)NC(=O)[C@H](C)N(C)C(=O)[C@H](C(C)C)NC(=O)[C@H](Cc2ccc(-c3ccccc3)cc2)NC1=O [Compound 1736] ({CH2CO}-HYDWL[Bip]V[NMeA][dA]NLVSCA-NH2; thioether N-14) | 0.02 µM
6 | CC(C)C[C@@H]1NC(=O)[C@H](CCN)NC(=O)[C@@H](CC(C)C)NC(=O)[C@H](C)N(C)C(=O)[C@H](CCCNC(=N)N)NC(=O)[C@H](Cc2ccc(-c3ccc(CCOCC(=O)O)cc3)cc2)NC(=O)[C@H](C(C)C)NC(=O)[C@H](Cc2c[nH]c3ccccc23)NC(=O)[C@H](CC(=O)O)NC(=O)[C@H](Cc2ccc(O)cc2)NC(=O)[C@H](CC(N)=O)NC(=O)CSC[C@@H](C(=O)N[C@@H](C)C(N)=O)NC(=O)[C@H]([C@@H](C)O)NC(=O)[C@H](C(C)C)NC1=O [Compound 1210] ({CH2CO}-NYDWV[X18]R[NMeA][dL][Dab]LVTCA-NH2; thioether N-14) | 0.88 µM
7 | CC(C)C[C@@H]1NC(=O)[C@H](Cc2c[nH]c3ccccc23)NC(=O)[C@H](CC(=O)O)NC(=O)[C@H](Cc2cccs2)NC(=O)[C@H](Cc2ccccc2)NC(=O)CSC[C@@H](C(=O)N[C@@H](C)C(N)=O)NC(=O)[C@H](CO)NC(=O)[C@H](C(C)C)NC(=O)[C@H](CC(C)C)NC(=O)[C@H](CC(N)=O)NC(=O)[C@@H](C)NC(=O)[C@H](C)N(C)C(=O)[C@H](C(C)C)NC(=O)[C@H](Cc2ccc(-c3ccccc3)cc2)NC1=O [Compound 1725] ({CH2CO}-F[2Thi]DWL[Bip]V[NMeA][dA]NLVSCA-NH2; thioether N-14) | 0.01 µM
8 | CC(C)C[C@@H]1NC(=O)[C@H](Cc2c[nH]c3ccccc23)NC(=O)[C@H](CC(=O)O)NC(=O)[C@H](Cc2ccc(O)cc2)NC(=O)[C@H](Cc2ccccc2)NC(=O)CSC[C@@H](C(=O)N[C@@H](C)C(N)=O)NC(=O)[C@H](CO)NC(=O)[C@H](C(C)C)NC(=O)[C@H](CC(C)C)NC(=O)[C@H](CC(N)=O)NC(=O)[C@@H](CCCCN)NC(=O)[C@H](C)N(C)C(=O)[C@H](C(C)C)NC(=O)[C@H](Cc2ccc(-c3ccccc3)cc2)NC1=O [Compound 1793] ({CH2CO}-FYDWL[Bip]V[NMeA][dK]NLVSCA-NH2; thioether N-14) | 0.15 µM
9 | Cc1cccc(C[C@@H]2NC(=O)[C@H](CC(=O)O)NC(=O)[C@H](Cc3ccc(OCC(=O)O)cc3)NC(=O)[C@H](Cc3ccncc3)NC(=O)CSC[C@@H](C(N)=O)NC(=O)[C@H](CCCN)NC(=O)[C@H](C(C)C)NC(=O)[C@H](CC3CCCCC3)NC(=O)[C@H](CCN)NC(=O)[C@@H](CC(C)C)NC(=O)[C@H](C)N(C)C(=O)[C@H](Cc3ccc(OCC(=O)O)cc3)NC(=O)[C@H](Cc3ccc(-c4ccccc4)cc3)NC(=O)[C@H](Cc3ccc(OCC(=O)O)cc3)NC2=O)c1 [Compound 1662] ({CH2CO}-[4Pal]Y(Carboxymethyl)D[Phe(3-Me)]Y(Carboxymethyl)[Bip]Y(Carboxymethyl)[NMeA][dL][Dab][Cha]V[Orn]C-NH2; thioether N-14) | 0.01 µM

Next, values leading:

Row | IC50 | SMILES
10 | 0.03 µM | CC(C)C[C@H]1NC(=O)[C@H](C)N(C)C(=O)[C@H](C(C)C)NC(=O)[C@H](Cc2ccc(-c3ccccc3)cc2)NC(=O)[C@H](C(C)C)NC(=O)[C@H](Cc2c[nH]c3ccccc23)NC(=O)[C@H](CC(=O)O)NC(=O)[C@H](Cc2ccncc2)NC(=O)[C@H](Cc2ccc(OCC(=O)O)cc2)NC(=O)CSC[C@@H](C(N)=O)NC(=O)[C@H](CCCCN)NC(=O)[C@H](C(C)C)NC(=O)[C@H](CC2CCCCC2)NC(=O)[C@H](CC(N)=O)NC1=O [Compound 2246] ({CH2CO}-Y(Carboxymethyl)[4Pal]DWV[Bip]V[NMeA][dL]N[Cha]VKC-NH2; thioether N-14)
11 | 0.05 µM | CC[C@@H](C)[C@@H]1NC(=O)[C@H](Cc2ccc(-c3ccccc3)cc2)NC(=O)[C@H](CC(C)C)NC(=O)[C@H](Cc2c[nH]c3ccccc23)NC(=O)[C@H](CC(=O)O)NC(=O)[C@H](Cc2ccc(C(=O)O)cc2)NC(=O)[C@H](Cc2ccc(OCC(=O)O)cc2)NC(=O)CSC[C@@H](C(=O)N[C@@H](CCCCN)C(N)=O)NC(=O)[C@H](Cc2cnc[nH]2)NC(=O)C(C(C)C)NC(=O)[C@H](CC(C)C)NC(=O)[C@H](CC(N)=O)NC(=O)[C@@H](CC(C)C)NC(=O)[C@H](C)N(C)C1=O (stereo partly drawn) [Compound 2104] ({CH2CO}-Y(Carboxymethyl)[Phe(4-COOH)]DWL[Bip][aIle][NMeA][dL]NL[ξV]HCK-NH2; thioether N-14)
12 | 0.02 µM | Cc1cccc(C[C@@H]2NC(=O)[C@H](CC(=O)O)NC(=O)[C@H](Cc3ccc(OCC(=O)O)cc3)NC(=O)[C@H](Cc3ccncc3)NC(=O)CSC[C@@H](C(=O)N[C@@H](CCN)C(N)=O)NC(=O)[C@H]([C@@H](C)O)NC(=O)[C@H](C(C)C)NC(=O)[C@H](CC3CCCCC3)NC(=O)[C@H](CCNC(=O)C(C)(C)C)NC(=O)[C@@H](CC(C)C)NC(=O)[C@H](C)N(C)C(=O)[C@H](Cc3ccc(OCC(=O)O)cc3)NC(=O)[C@H](Cc3ccc(-c4ccccc4)cc3)NC(=O)[C@H](Cc3ccc(OCC(=O)O)cc3)NC2=O)c1 [Compound 1865] ({CH2CO}-[4Pal]Y(Carboxymethyl)D[Phe(3-Me)]Y(Carboxymethyl)[Bip]Y(Carboxymethyl)[NMeA][dL][Dab](Piv)[Cha]VTC[Dab]-NH2; thioether N-14)
13 | 0.02 µM | CC(C)C[C@@H]1NC(=O)[C@H](Cc2c[nH]c3ccccc23)NC(=O)[C@H](CC(=O)O)NC(=O)[C@H](CCO)NC(=O)[C@H](Cc2ccccc2)NC(=O)CSC[C@@H](C(=O)N[C@@H](C)C(=O)N[C@@H](CCC(=O)O)C(N)=O)NC(=O)[C@H](CO)NC(=O)[C@H](C(C)C)NC(=O)[C@H](CC(C)C)NC(=O)[C@H](CC(N)=O)NC(=O)[C@@H](CC(C)C)NC(=O)[C@H](C)N(C)C(=O)[C@H](C(C)C)NC(=O)[C@H](Cc2ccc(-c3ccccc3)cc2)NC1=O [Compound 2009] ({CH2CO}-F[hSer]DWL[Bip]V[NMeA][dL]NLVSCAE-NH2; thioether N-14)
14 | 0.11 µM | CCC(C)[C@@H]1NC(=O)[C@H](Cc2ccc(-c3ccccc3)cc2)NC(=O)[C@H](C(C)C)NC(=O)[C@H](Cc2c[nH]c3ccccc23)NC(=O)[C@H](CC(=O)O)NC(=O)[C@H](Cc2ccc(O)cc2)NC(=O)[C@H](Cc2ccncc2)NC(=O)CSC[C@@H](C(=O)N[C@@H](C)C(N)=O)NC(=O)[C@H](C(C)O)NC(=O)[C@H](C(C)C)NC(=O)[C@H](CC2CCCCC2)NC(=O)[C@H](Cc2c[nH]cn2)NC(=O)[C@@H](CC(C)C)NC(=O)[C@H](C)N(C)C1=O (stereo partly drawn) [Compound 2093] ({CH2CO}-[4Pal]YDWV[Bip][Ile(3ξ)][NMeA][dL]H[Cha]V[Thr(3ξ)]CA-NH2; thioether N-14)
15 | 0.15 µM | CC(C)C[C@@H]1NC(=O)[C@H](CCN)NC(=O)[C@@H](CC(C)C)NC(=O)[C@H](C)N(C)C(=O)[C@H](CCCN)NC(=O)[C@H](Cc2ccc(-c3ccccc3)cc2)NC(=O)[C@H](C(C)C)NC(=O)[C@H](Cc2c[nH]c3ccccc23)NC(=O)[C@H](CC(=O)O)NC(=O)[C@H](Cc2ccc(O)cc2)NC(=O)[C@H](CN)NC(=O)CSC[C@@H](C(=O)N[C@@H](C)C(N)=O)NC(=O)[C@H](C(C)O)NC(=O)[C@H](C(C)C)NC1=O (stereo partly drawn) [Compound 2080] ({CH2CO}-[Dap]YDWV[Bip][Orn][NMeA][dL][Dab]LV[Thr(3ξ)]CA-NH2; thioether N-14)

— patent publication US20240409585A1, “MACROCYCLIC IMMUNOMODULATORS” (priority 2021, published 2024)
